pEC50: −log10 of the molar value. A value given as a limit tells only on which side of the number the result lay.

EC50 data for 23 compounds are collected here from patent publication US11078170B2 (Assembly Biosciences, Inc., priority 2017, dated 2021).

In the assay the test system is HBV viral production from HepAD38 cells. In words: Activity of test compounds on viral production from HepAD38 cells (viral load by qPCR of HBV core sequence in supernatant). The class given is cell-based. Conditions: Hepatitis B virus, 120 h, 5 days incubation, HBV DNA in supernatant by qPCR, top concentration 10 μM, read-out: Viral Load EC50 Activity range. The method, then: Assay Measuring Activity of Test Compounds on Viral Production from HepAD38 Cells
HepAD38 cells grown in a T-150 flask (Corning, cat #: 430825) with Growth Medium (DMEM/F12 (1:1) (Hyclone, cat #: SH30023.02), 1×Pen/Strep (Invitrogen, cat #: 15140-122), 10% FBS (Tissue Culture Biologics, cat #: 101), 250 μg/mL G418 (Alfa Aesar, cat #: J62671), 1 μg/mL Tetracycline (Teknova, cat #: T3320)) were detached with 0.25% trypsin-EDTA (Invitrogen, cat #: 25200-056). Tetracycline-free treatment medium (15 mL DMEM/F12 (1:1) 1× Pen/step, with 2% FBS, Tet-system approved (Clontech, cat #: 631106) were then added to mix, transferred into a 50 ml conical tube (Falcon, cat #: 21008-918) and spun at 1300 rpm for 5 min. Pelleted cells were then re-suspended/washed with 50 mL of 1×DPBS (Invitrogen, cat #: 14190-136) 2 times and 50 mL treatment medium twice. HepAD38 cells were then re-suspended with 10 mL of treatment medium, syringed and counted. Wells of 96-well clear bottom TC plate (Corning, cat #: 3904) were seeded at 50,000 cells/well in 180 μL of treatment medium, and 20 μL of either 10% DMSO (Sigma, cat #: D4540) as controls or a 10× solution of test compounds in 10% DMSO in treatment media was added for a final compound concentration starting at 10 μM, and plates were incubated in 5% CO2 incubator at 37° C. for 5 days.
Subsequently viral load production was assayed by quantitative PCR (qPCR) of the HBV core sequence. PCR reaction mixture containing forward primers HBV-f 5′-CTGTGCCTTGGGTGGCTTT-3′, which is SEQ ID NO 1, (IDT DNA), Reverse primers HBV-r 5′-[…]-3′, which is SEQ ID NO 2 (IDT DNA), Fluorescent TaqMan™ Probes HBV-probe 5′-FAM/AGCTCCAAA/ZEN/[…]/3IABkFQ-3′ (IDT DNA), which is SEQ ID NO 3, 10 μL/well of PerfeCTa® qPCR ToughMix® (Quanta Biosciences, Cat #: 95114-05K), and 6 µL/well of DEPC water (Alfa Aesar, cat #: J62087) was prepared. Four μL of supernatant was added to 16 μL of the reaction mixture in a qPCR plate (Applied Biosytems, Cat #: 4309849), sealed with a film (Applied Biosystems, Cat #: 4311971), centrifuged for a few seconds, and subsequently run on an Applied Biosystems VIIA7. The PCR mixture was incubated at 45° C. for 5 min, then 95° C. for 10 min, followed by 40 cycles of 10 seconds at 95° C. and 20 seconds at 60° C. Viral load was quantified against known HBV DNA standards by using ViiA™ 7 Software. Viral load in the supernatant from wells with treated cells were compared against viral load in supernatant from DMSO control wells (≥3 per plate). Cell viability assay was performed with CellTiter-Glo Luminescent Cell Viability Assay (Promega, cat #: G7573) with modification. Mixed appropriate amount of CellTiter-Glo (CTG) 1×DPBS in a 1:1 ratio, added 100 uL of the mixture to each well followed completely removal of all supernatant in each well without touching cell surface. Incubated the plate at room temperature for 10 min on an orbital shaker, and then read the plate with a plate reader (TECAN M1000 or Envision). EC50 or CC50 values were calculated through curve-fitting of the four-parameter nonlinear-logistic-regression model (GraphPad Prism or Dotmatics). CC50 values were all >10 μM.
(In general: In qPCR the cycle at which signal appears reflects the starting amount.)
What is called pEC50 is −log10 of the EC50, conventionally taken in molar units. Take `CN1C(C(=O)Nc2ccc(F)c(Cl)c2)CC(c2cc(-c3ccccn3)cs2)NS1(=O)=O` (racemic) [HBV-CSU-168, Cis-N-(3-chloro-4-fluorophenyl)-2-methyl-5-(4-(pyridin-2-yl)thiophen-2-yl)-1,2,6-thiadiazinane-3-carboxamide 1,1-dioxide]: the pEC50 is more than 6.00.

As to `CN1C(C(=O)Nc2ccc(F)c(Cl)c2)CC(c2ncc(-c3ccc(Br)c(F)c3)s2)NS1(=O)=O` (racemic) [HBV-CSU-173, Cis-5-(5-(4-Bromo-3-fluorophenyl)thiazol-2-yl)-N-(3-chloro-4-fluorophenyl)-2-methyl-1,2,6-thiadiazinane-3-carboxamide 1,1-dioxide], the pEC50 is more than 6.00. As to `CN1C(C(=O)Nc2ccc(F)c(Cl)c2)CC(c2ncc(-c3cccnc3)s2)NS1(=O)=O` (racemic) [HBV-CSU-175, Cis-N-(3-Chloro-4-fluorophenyl)-2-methyl-5-(5-(pyridin-3-yl)thiazol-2-yl)-1,2,6-thiadiazinane-3-carboxamide 1,1-dioxide], the pEC50 is more than 6.00. Then `CN1C(C(=O)Nc2ccc(F)c(Cl)c2)CC(c2ncc(-c3ccccn3)s2)NS1(=O)=O` (racemic) [HBV-CSU-176, Cis-N-(3-chloro-4-fluorophenyl)-2-methyl-5-(5-(pyridin-2-yl)thiazol-2-yl)-1,2,6-thiadiazinane-3-carboxamide 1,1-dioxide], with more than 6.00. As for `CN1C(C(=O)Nc2ccc(F)c(Cl)c2)CC(c2ncc(-c3cnn(C)c3)s2)NS1(=O)=O` (racemic) [HBV-CSU-177, Cis-N-(3-Chloro-4-fluorophenyl)-2-methyl-5-(5-(1-methyl-1H-pyrazol-4-yl)thiazol-2-yl)-1,2,6-thiadiazinane-3-carboxamide 1,1-dioxide], the pEC50 was more than 6.00. Regarding `CN1C(C(=O)Nc2ccc(F)c(Cl)c2)CC(c2ncc(-c3cccs3)s2)NS1(=O)=O` (racemic) [HBV-CSU-178, Cis-N-(3-Chloro-4-fluorophenyl)-2-methyl-5-(5-(thiophen-2-yl)thiazol-2-yl)-1,2,6-thiadiazinane-3-carboxamide 1,1-dioxide], the negative logarithm of the EC50 (pEC50) was more than 6.00. For `CN(C)CCOc1ccc(C2CC(C(=O)Nc3ccc(F)c(Cl)c3)N(C)S(=O)(=O)N2)s1` (racemic) [HBV-CSU-188, Cis-N-(3-chloro-4-fluorophenyl)-5-(5-(2-(dimethylamino)ethoxy)thiophen-2-yl)-2-methyl-1,2,6-thiadiazinane-3-carboxamide 1,1-dioxide] the value was more than 6.00; for `CN(C)CCCOc1ccc(C2CC(C(=O)Nc3ccc(F)c(Cl)c3)N(C)S(=O)(=O)N2)cc1` (racemic) [HBV-CSU-208, Cis-N-(3-chloro-4-fluorophenyl)-5-(4-(3-(dimethylamino)propoxy)phenyl)-2-methyl-1,2,6-thiadiazinane-3-carboxamide 1,1-dioxide], more than 6.00; for `COCCN1C(C(=O)Nc2ccc(F)c(Cl)c2)CC(c2ccc(F)cc2)NS1(=O)=O` (racemic) [HBV-CSU-210, Cis-N-(3-Chloro-4-fluorophenyl)-5-(4-fluorophenyl)-2-(2-methoxyethyl)-1,2,6-thiadiazinane-3-carboxamide 1,1-dioxide], more than 6.00. For `CN1C(C(=O)Nc2ccc(F)c(Br)c2)CC(c2ccc(F)cc2)NS1(=O)=O` (racemic) [HBV-CSU-211, Cis-N-(3-Bromo-4-fluorophenyl)-5-(4-fluorophenyl)-2-methyl-1,2,6-thiadiazinane-3-carboxamide 1,1-dioxide] the value was more than 6.00; for `CN1C(C(=O)Nc2cc(F)c(F)c(F)c2)CC(c2ccc(F)cc2)NS1(=O)=O` (racemic) [HBV-CSU-212, Cis-5-(4-Fluorophenyl)-2-methyl-N-(3,4,5-trifluorophenyl)-1,2,6-thiadiazinane-3-carboxamide 1,1-dioxide], more than 6.00.

For `CN1C(C(=O)Nc2ccc(F)c(Cl)c2)CC(c2ccc(C#N)cc2)NS1(=O)=O` (racemic) [HBV-CSU-213, Cis-N-(3-chloro-4-fluorophenyl)-5-(4-cyanophenyl)-2-methyl-1,2,6-thiadiazinane-3-carboxamide 1,1-dioxide], the pEC50 was more than 6.00. For `CN1C(C(=O)Nc2ccc(F)c(Cl)c2)CC(c2ccc(C(N)=O)cc2)NS1(=O)=O` (racemic) [HBV-CSU-214, Cis-5-(4-Carbamoylphenyl)-N-(3-chloro-4-fluorophenyl)-2-methyl-1,2,6-thiadiazinane-3-carboxamide 1,1-dioxide] the value was more than 6.00.

Turning to `CN1C(C(=O)Nc2ccc(F)c(Cl)c2)CC(c2ccc(OCC(=O)O)cc2)NS1(=O)=O` (racemic) [HBV-CSU-216, Cis-2-(4-(5-((3-Chloro-4-fluorophenyl)carbamoyl)-6-methyl-1,1-dioxido-1,2,6-thiadiazinan-3-yl)phenoxy)acetic acid], the pEC50 is less than 5.30. Regarding `CN1C(C(=O)Nc2ccc(F)c(Cl)c2)CC(c2ccc(C(F)(F)F)cc2)NS1(=O)=O` (racemic) [HBV-CSU-217, Cis-N-(3-Chloro-4-fluorophenyl)-2-methyl-5-(4-(trifluoromethyl)phenyl)-1,2,6-thiadiazinane-3-carboxamide 1,1-dioxide], the negative logarithm of the EC50 (pEC50) is 5.30 to 6.00. Take `CN1C(C(=O)Nc2ccc(F)c(Cl)c2)CC(c2ccc(C(=O)O)cc2)NS1(=O)=O` (racemic) [HBV-CSU-218, Cis-4-(5-((3-Chloro-4-fluorophenyl)carbamoyl)-6-methyl-1,1-dioxido-1,2,6-thiadiazinan-3-yl)benzoic acid]: the pEC50 is 5.30 to 6.00. Then `CN1C(C(=O)Nc2ccc(F)c(Cl)c2)CC(c2ccc(C(F)(F)F)s2)NS1(=O)=O` (racemic) [HBV-CSU-219, Cis-N-(3-Chloro-4-fluorophenyl)-2-methyl-5-(5-(trifluoromethyl)thiophen-2-yl)-1,2,6-thiadiazinane-3-carboxamide 1,1-dioxide], with more than 6.00; and `CN1C(C(=O)Nc2ccc(F)c(Cl)c2)CC(c2ccc(C#N)c(F)c2)NS1(=O)=O` (racemic) [HBV-CSU-221, Cis-N-(3-chloro-4-fluorophenyl)-5-(4-cyano-3-fluorophenyl)-2-methyl-1,2,6-thiadiazinane-3-carboxamide 1,1-dioxide], with more than 6.00; and `CN1C(C(=O)Nc2ccc(F)c(Cl)c2)CC(C2CCCC2)NS1(=O)=O` (racemic) [HBV-CSU-222, Cis-N-(3-chloro-4-fluorophenyl)-5-cyclopentyl-2-methyl-1,2,6-thiadiazinane-3-carboxamide 1,1-dioxide], with more than 6.00.

Consider `Cc1ncc(C2CC(C(=O)Nc3ccc(F)c(Cl)c3)N(C)S(=O)(=O)N2)s1` (racemic) [HBV-CSU-224, Cis-N-(3-Chloro-4-fluorophenyl)-2-methyl-5-(2-methylthiazol-5-yl)-1,2,6-thiadiazinane-3-carboxamide 1,1-dioxide], for which the pEC50 is more than 6.00.

Take `CN1C(C(=O)Nc2ccc(F)c(Cl)c2)CC(c2ccc(F)c(F)c2)NS1(=O)=O` (racemic) [HBV-CSU-230, Cis-N-(3-Chloro-4-fluorophenyl)-5-(3,4-difluorophenyl)-2-methyl-1,2,6-thiadiazinane-3-carboxamide 1,1-dioxide]: the pEC50 is more than 6.00. Then `CN1C(C(=O)Nc2ccc(F)c(Cl)c2)CC(c2cccc(F)c2)NS1(=O)=O` (racemic) [HBV-CSU-231, Cis-N-(3-Chloro-4-fluorophenyl)-5-(3-fluorophenyl)-2-methyl-1,2,6-thiadiazinane-3-carboxamide 1,1-dioxide], with more than 6.00; and `CN1C(C(=O)Nc2ccc(F)c(Cl)c2)CC(c2ccc(OC(F)(F)F)cc2)NS1(=O)=O` (racemic) [HBV-CSU-232, Cis-N-(3-Chloro-4-fluorophenyl)-2-methyl-5-(4-(trifluoromethoxy)phenyl)-1,2,6-thiadiazinane-3-carboxamide 1,1-dioxide], with more than 6.00.
